EC50 data for two compounds are collected here from ChEMBL document CHEMBL3045121, “Synthesis of an Antifungal Naphthoquinone Isolated fromRhinacanthus nasutus(Acanthaceae)” (1995).

Converted amounts (≈) assume the structure as drawn.

For this test, the system named is Pyricularia oryzae. The experiment in a line: Inhibition of spore germination of Magnaporthe oryzae. The format is functional. Conditions: read-out: ED50 (the source's name).

For `C/C=C(\C)CC/C=C(\C)C(=O)OCC(C)(C)CC1=C(O)C(=O)c2ccccc2C1=O` [RHINACANTHIN C], the EC50 was found to be 0.2 µg/mL (≈ 0.487 µM).
Under `CC1(C)COC2=C(C1)C(=O)C(=O)c1ccccc12` [RHINACANTHONE] stands 0.4 µg/mL (≈ 1.65 µM).
